Results taken from PubChem BioAssay AID2060512 (Molecular Pharmacology Branch, DTP, NCI, 2025).

Tested on: 186277-243-T-J2-PDC complex spheroid viability
Assay: Anticancer human tumor 186277-243-T-J2-PDC patient-derived colon adenocarcinoma cell line growth inhibition [GQUAD]
Settings: for IC50: curve of first compound; for viability, T/C: stronger effect = lower value
Summary of the method: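 Tumor cells were grown as complex spheroids with HUVEC endothelial cells and mesenchymal stem cells as stroma. G-quadruplex stabilizers were combined with targeted agents over half-log dilutions from near the clinical Cmax, or from 10 microM.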

[1] = second compound 0.0316 µM, first compound 0.0316 µM
[2] = second compound 0.0316 µM, first compound 0.316 µM
[3] = second compound 0.1 µM, first compound 0.0316 µM
[4] = second compound 0.1 µM, first compound 0.316 µM
[5] = second compound 0.316 µM, first compound 0.0316 µM
[6] = second compound 0.316 µM, first compound 0.316 µM
[7] = second compound 1 µM, first compound 0.0316 µM
[8] = second compound 1 µM, first compound 0.316 µM
[9] = second compound 3.16 µM, first compound 0.0316 µM
[10] = second compound 3.16 µM, first compound 0.316 µM
[11] = second compound 10 µM, first compound 0.0316 µM
[12] = second compound 10 µM, first compound 0.316 µM
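Note: spheroids exposed to drugs for 7 days.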
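Throughout, for viability, T/C: 100% = DMSO vehicle control viability.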

## CC[C@@]1(O)C(=O)OCc2c1cc1n(c2=O)Cc2cc3c(CN(C)C)c(O)ccc3nc2-1 + Cc1cnc(CNC(=O)c2c(=O)c3ccc(N4CCCN(C)CC4)nc3n3c2sc2ccccc23)cn1
Second compound 0.0316 µM
  IC50: > 316 nM
Second compound 0.1 µM
  IC50: 263 nM
Second compound 0.316 µM
  IC50: 176 nM
Second compound 1 µM
  IC50: < 0.999 nM
Second compound 3.16 µM
  IC50: < 0.999 nM
Second compound 10 µM
  IC50: < 0.999 nM
Second compound 0.0316 µM, first compound 0.000999 µM
  viability, T/C: 95.2%
Second compound 0.0316 µM, first compound 0.00316 µM
  viability, T/C: 85.6%
Second compound 0.0316 µM, first compound 0.00999 µM
  viability, T/C: 82.4%
[1]
  viability, T/C: 77.1%
Second compound 0.0316 µM, first compound 0.0999 µM
  viability, T/C: 64.4%
[2]
  viability, T/C: 52.8%
Second compound 0.1 µM, first compound 0.000999 µM
  viability, T/C: 79.6%
Second compound 0.1 µM, first compound 0.00316 µM
  viability, T/C: 74.4%
Second compound 0.1 µM, first compound 0.00999 µM
  viability, T/C: 87.5%
[3]
  viability, T/C: 60.9%
Second compound 0.1 µM, first compound 0.0999 µM
  viability, T/C: 66.6%
[4]
  viability, T/C: 47.1%
Second compound 0.316 µM, first compound 0.000999 µM
  viability, T/C: 68.1%
Second compound 0.316 µM, first compound 0.00316 µM
  viability, T/C: 56.5%
Second compound 0.316 µM, first compound 0.00999 µM
  viability, T/C: 71.3%
[5]
  viability, T/C: 70.7%
Second compound 0.316 µM, first compound 0.0999 µM
  viability, T/C: 62%
[6]
  viability, T/C: 36.6%
Second compound 1 µM, first compound 0.000999 µM
  viability, T/C: 47.9%
Second compound 1 µM, first compound 0.00316 µM
  viability, T/C: 38.1%
Second compound 1 µM, first compound 0.00999 µM
  viability, T/C: 49.7%
[7]
  viability, T/C: 50.1%
Second compound 1 µM, first compound 0.0999 µM
  viability, T/C: 52.2%
[8]
  viability, T/C: 38.2%
Second compound 3.16 µM, first compound 0.000999 µM
  viability, T/C: 49.6%
Second compound 3.16 µM, first compound 0.00316 µM
  viability, T/C: 44.2%
Second compound 3.16 µM, first compound 0.00999 µM
  viability, T/C: 46.7%
[9]
  viability, T/C: 40.7%
Second compound 3.16 µM, first compound 0.0999 µM
  viability, T/C: 46.2%
[10]
  viability, T/C: 27.7%
Second compound 10 µM, first compound 0.000999 µM
  viability, T/C: 39.6%
Second compound 10 µM, first compound 0.00316 µM
  viability, T/C: 37.4%
Second compound 10 µM, first compound 0.00999 µM
  viability, T/C: 47.1%
[11]
  viability, T/C: 41.8%
Second compound 10 µM, first compound 0.0999 µM
  viability, T/C: 41.6%
[12]
  viability, T/C: 36.4%

## C#Cc1c(F)ccc2cc(O)cc(-c3ncc4c(N5CC6CCC(C5)N6)nc(OCC56CCCN5CC(F)C6)nc4c3F)c12 (centres undefined) + Cc1cnc(CNC(=O)c2c(=O)c3ccc(N4CCCN(C)CC4)nc3n3c2sc2ccccc23)cn1
Second compound 0.0316 µM
  IC50: 58.7 nM
Second compound 0.1 µM
  IC50: < 31.6 nM
Second compound 0.316 µM
  IC50: < 31.6 nM
Second compound 1 µM
  IC50: < 31.6 nM
Second compound 3.16 µM
  IC50: < 31.6 nM
Second compound 10 µM
  IC50: < 31.6 nM
[1]
  viability, T/C: 75.4%
Second compound 0.0316 µM, first compound 0.1 µM
  viability, T/C: 26.8%
[2]
  viability, T/C: 19.9%
Second compound 0.0316 µM, first compound 1 µM
  viability, T/C: 8.12%
Second compound 0.0316 µM, first compound 3.16 µM
  viability, T/C: 13.9%
Second compound 0.0316 µM, first compound 10 µM
  viability, T/C: 11.4%
[3]
  viability, T/C: 40%
Second compound 0.1 µM, first compound 0.1 µM
  viability, T/C: 18.8%
[4]
  viability, T/C: 9.79%
Second compound 0.1 µM, first compound 1 µM
  viability, T/C: 7.98%
Second compound 0.1 µM, first compound 3.16 µM
  viability, T/C: 9.12%
Second compound 0.1 µM, first compound 10 µM
  viability, T/C: 5.32%
[5]
  viability, T/C: 23.8%
Second compound 0.316 µM, first compound 0.1 µM
  viability, T/C: 14.6%
[6]
  viability, T/C: 8.91%
Second compound 0.316 µM, first compound 1 µM
  viability, T/C: 5.69%
Second compound 0.316 µM, first compound 3.16 µM
  viability, T/C: 5.84%
Second compound 0.316 µM, first compound 10 µM
  viability, T/C: 4.29%
[7]
  viability, T/C: 18.2%
Second compound 1 µM, first compound 0.1 µM
  viability, T/C: 9.62%
[8]
  viability, T/C: 6.74%
Second compound 1 µM, first compound 1 µM
  viability, T/C: 5.02%
Second compound 1 µM, first compound 3.16 µM
  viability, T/C: 5.11%
Second compound 1 µM, first compound 10 µM
  viability, T/C: 3.11%
[9]
  viability, T/C: 17.2%
Second compound 3.16 µM, first compound 0.1 µM
  viability, T/C: 12.5%
[10]
  viability, T/C: 5.45%
Second compound 3.16 µM, first compound 1 µM
  viability, T/C: 4.44%
Second compound 3.16 µM, first compound 3.16 µM
  viability, T/C: 4.72%
Second compound 3.16 µM, first compound 10 µM
  viability, T/C: 2.99%
[11]
  viability, T/C: 14.2%
Second compound 10 µM, first compound 0.1 µM
  viability, T/C: 9.54%
[12]
  viability, T/C: 4.98%
Second compound 10 µM, first compound 1 µM
  viability, T/C: 0.27%
Second compound 10 µM, first compound 3.16 µM
  viability, T/C: 2.03%
Second compound 10 µM, first compound 10 µM
  viability, T/C: 0.19%
